How the values were obtained:
[1] = system: total cell migration into air pouch exudates; experiment: Mouse dorsal air pouch model: total cell migration into exudates; assay type: in vivo, C57/B16 mice; settings: 100 ng docosanoid intra-pouch; for total number of cells in the pouch: 100 ng TNFα, 4 hours
Description: (§1) Pure 17R-hydroxy DHA (17R-HDHA) was purchased from Caymen Chemicals (Ann Arbor, Mich.). Docosanoids 17-hydroxy-DPAn-6 (17-HDPAn-6) and 10,17-dihydroxyDPAn-6 (10,17-HDPAn-6) were synthesized biogenically from DPAn-6 (NuChek Prep, Elysian, Minn.) using soybean 15-lipoxygenase (Sigma-Aldrich) and purified by HPLC as described in Example 2. Organic solvents were evaporated and the compounds were re-dissolved in phosphate buffered saline (PBS), filter sterilized and concentrations were adjusted to 1000 ng/ml using molar extinction coefficients of 28,000 and 40,000 M^−1 cm^−1 for the mono- and dihydroxy docosanoids, respectively. Female C57/B16 mice (n=10 mice per group) were injected with sterile air subcutaneously in the back to initiate dorsal air pouches. Six days later, 0.9 ml sterile PBS followed by 100 ng docosanoid in 0.1 ml PBS or PBS alone were administered by intra-pouch injection. This injection was followed within 5 min by intra-pouch injection of 100 ng of mouse recombinant TNFα (Peprotech, Inc, NJ, USA) in 0.1 ml PBS. Control animals received no TNFα. As a positive control, 2 mg/kg indomethacin (Calbiochem, San Diego, Calif.) was administered intraperitoneally 30 min prior to administration of TNFα. Four hours after TNFα administration, air pouch exudates were removed and cells were stained with Turk's solution and counted. Exudates were frozen for later cytokine analyses using commercial ELISA kits. Bars represent group (n=10) means (±stdev). Groups were compared using Student's t test, with p values indicated.

[2] = system: IL-1β; experiment: Mouse dorsal air pouch model: IL-1β in exudates; assay type: in vivo, C57/B16 mice; settings: 100 ng docosanoid intra-pouch; for secretion of IL-1β in air pouch exudates: 100 ng TNFα, 4 hours
Description: as §1

[3] = system: macrophage chemotactic protein-1 (MCP-1); experiment: Mouse dorsal air pouch model: MCP-1 in exudates; assay type: in vivo, C57/B16 mice; settings: 100 ng docosanoid intra-pouch; for secretion of MCP-1 in air pouch exudates: 100 ng TNFα, 4 hours; for inhibition of MCP-1 secretion versus indomethacin: indomethacin 2 mg/kg i.p.
Description: as §1

[4] = system: human T lymphocytes; experiment: TNFα secretion by human T lymphocytes stimulated with anti-CD3/anti-CD28 antibodies; assay type: cell-based; settings: 6 hrs pretreatment, 41 hrs on anti-CD3/anti-CD28; difference p=0.037 at 10 nM
Experimental: FIG. 22A: Effect of Docosanoids on TNFα Secretion by Human T Lymphocytes. The assay was performed essentially as described in Ariel et al, 2005. Briefly, human peripheral blood mononuclear cells were isolated from venous blood by Ficoll-Paque™ Plus (Amersham biosciences) gradient. T lymphocytes were isolated using a human T cell enrichment column (R&D Systems) per manufacturer's instructions. Purified T cells were treated with 10,17-dihydroxy DPAn-6 or 10,17-dihydroxy DHA or vehicle (0.05% ethanol) in RPMI-1640 media containing 10% heat inactivated fetal bovine serum for 6 hrs at 37° C. Lymphocytes (200,000 cells in 200 μl media per well) were then transferred to 96-well plates coated with both anti-CD3 antibody and anti-CD28 antibody (100 μl of 2 μg/ml of each antibody overnight to coat wells) and incubated for 41 hrs. TNFα concentrations were determined in cell supernatants by ELISA (R&D Systems). Group means±stdev (n=4) were compared by Student's t test. *p<0.05 and **p<0.01 compared to control; # indicates statistical difference (p=0.037) between the groups treated with 10,17-dihydroxy DPAn-6 and 10,17-dihydroxy DHA at the 10 nM concentrations.

[5] = system: hind paw edema; experiment: Carrageenan-induced rat paw edema after feeding LCPUFA diets; assay type: in vivo, Sprague Dawley rats; settings: diet 4 weeks, 1% carrageenan, 3 hours post-injection, Day 28
Experimental: Adult, male, Sprague Dawley rats (n=10/treatment group) were fed modified AlN-76 diets formulated to include 1.2% DHA, 1.2% DHA+0.44% DPAn-6, or 1.2% DHA+0.46% arachidonic acid (ARA) for 4 weeks. Carrageenan (1%) was used to induce hind paw edema on Day 14 (left paw) and Day 28 (right paw) of feeding. Edema was measured plethysmographically using water displacement 3 hours post-injection. Similar results were obtained on day 14. *p≦0.05.

[6] = system: inflammatory cytokine production; experiment: Consumption of LCPUFA oils: inflammatory cytokine and eicosanoid production; assay type: in vivo; settings: consumption of the oil; DHA dose approximately three times higher in DHA-alone oil
[7] = target: T1, Soybean 15-lipoxygenase (Glycine max, UniProt P08170); experiment: 15-lipoxygenase reaction with fatty acid substrates (conversion to conjugated diene); assay type: biochemical; settings: 100 μM fatty acid, 4 μg/ml enzyme, 0.05 M sodium borate pH 9.0, 0° C, absorbance 238 nm
T1 construct: purchased Sigma-Aldrich
T1 sequence (P08170 1-839): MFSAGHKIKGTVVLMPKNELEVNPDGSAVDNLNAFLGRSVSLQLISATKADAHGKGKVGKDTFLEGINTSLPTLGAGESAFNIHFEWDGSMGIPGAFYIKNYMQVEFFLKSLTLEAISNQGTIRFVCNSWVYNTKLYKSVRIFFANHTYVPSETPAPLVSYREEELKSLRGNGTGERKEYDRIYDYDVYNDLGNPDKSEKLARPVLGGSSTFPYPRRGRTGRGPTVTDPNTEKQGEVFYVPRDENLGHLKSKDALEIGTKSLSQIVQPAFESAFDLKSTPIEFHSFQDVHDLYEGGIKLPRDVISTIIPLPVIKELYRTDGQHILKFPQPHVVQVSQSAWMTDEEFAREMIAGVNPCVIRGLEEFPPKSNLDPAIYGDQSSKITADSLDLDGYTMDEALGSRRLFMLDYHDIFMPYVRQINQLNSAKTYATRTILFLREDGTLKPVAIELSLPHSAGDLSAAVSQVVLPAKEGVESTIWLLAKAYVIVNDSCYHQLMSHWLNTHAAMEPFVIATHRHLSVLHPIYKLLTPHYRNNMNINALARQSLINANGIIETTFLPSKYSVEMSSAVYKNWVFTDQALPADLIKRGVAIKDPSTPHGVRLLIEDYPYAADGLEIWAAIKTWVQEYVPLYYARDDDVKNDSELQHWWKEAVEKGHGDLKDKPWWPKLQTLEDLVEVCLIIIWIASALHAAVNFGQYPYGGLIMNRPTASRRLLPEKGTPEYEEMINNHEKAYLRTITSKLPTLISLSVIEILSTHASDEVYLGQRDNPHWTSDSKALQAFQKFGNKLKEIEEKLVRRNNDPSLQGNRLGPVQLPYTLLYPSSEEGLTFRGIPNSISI
Experimental: Soybean 15-lipoxygenase (Sigma-Aldrich, St. Louis, Mo.) at a final concentration of 4 μg/ml was mixed into 100 μM solutions of DHA, DPAn-6, or DPAn-3 (NuChek Prep, Elysian, Minn.) in 0.05 M sodium borate buffer, pH 9.0, and the reaction mixtures were incubated at 0° C. Appearance of the mono-hydroxy conjugated diene derivatives of the fatty acids was monitored through absorbance at 238 nm. Conjugated diene products were quantified using an extinction coefficient of 28,000 M^−1 cm^−1 (Shimizu et al; Methods in Enzymology, 1990 Vol 187, 296-306). As shown in Example. 1, 100% of the DPAn-6 was efficiently converted to its conjugated diene derivative under these conditions, whereas about 85% of DPAn-3 and 50% of DHA were converted to their respective conjugated diene (mono-hydroxy) derivative by the 15-lipoxygenase. No appreciable accumulation of the dihydroxy derivatives occurred under these reaction conditions.

Row | Molecule | total number of cells in the pouch [1] | secretion of IL-1β in air pouch exudates [2] | secretion of MCP-1 in air pouch exudates [3] | inhibition of MCP-1 secretion versus indomethacin [3] | also measured
1 | 10,17-dihydroxy DPAn-6 | significant reductions | significant reductions | significant reductions | larger inhibition of MCP-1 secretion than indomethacin | reduction of IL-1β versus comparators ([2]; indomethacin 2 mg/kg i.p.): significantly larger than with that produced by either the DHA oxylipin derivative or indomethacin; reducing TNFα secretion by T lymphocytes, versus DHA analog [4]: more potent than the DHA analog
2 | CCCCCC(O)/C=C/C=C\C/C=C\C/C=C\C/C=C\CCC(=O)O (centres unmarked) [17-hydroxy DPAn-6] | significant reductions | significant reductions | significant reductions | larger inhibition of MCP-1 secretion than indomethacin | potency in reducing cell infiltration versus comparators ([1]; indomethacin 2 mg/kg i.p.): more potent than both 17R-hydroxy DHA and indomethacin
3 | CCCCC/C=C\C/C=C\C/C=C\C/C=C\CCCC(=O)O [ARA, arachidonic acid] | – | – | – | – | edema volume [5]: reversed the anti-inflammatory activity of DHA
4 | CC/C=C\C/C=C\C/C=C\C/C=C\C/C=C\C/C=C\CCC(=O)O [DHA, docosahexaenoic acid, reference compound] | – | – | – | – | reduction in inflammatory cytokine production [6]: 13-29%
5 | CC/C=C\C/C=C\C/C=C\C/C=C\C/C=C\CCCCCC(=O)O [DPAn-3, docosapentaenoic acid (C22:5n-3)] | – | – | – | – | converted to conjugated diene (mono-hydroxy) derivative by the 15-lipoxygenase [7]: about 85%

From patent US20110190389A1, “OXYLIPINS FROM LONG CHAIN POLYUNSATURATED FATTY ACIDS AND METHODS OF MAKING AND USING THE SAME” (priority 2007, published 2011)
